Laboratory results: patent publication US20150289512A1, “METHOD FOR PROMOTING PLANT GROWTH” (SUMITOMO CHEMICAL COMPANY, LIMITED, priority 2012, published 2015)

test system: Nicotiana benthamiana; assay: Test Example 6: growth promotion under low-temperature stress by hydroponics of Nicotiana benthamiana, 0.1 ppm; assay type: in vivo; conditions: 0.1 ppm in medium, low-temperature stress 7 days at 1.5±1.0° C., green leaf area 3 days later, equation (1)
Method in brief: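 Seeds grown in half-strength Murashige–Skoog medium (pH 5.8), compound at 0.1 ppm (0.1% DMSO), 7 days at 22 °C, 4,000 lux, 16 h day; then 7 days at 1.5±1.0 °C, 2,000 lux; then 3 days recovery at 22 °C. Green leaf area imaged; relative leaf area versus DMSO controls before and after cold, ≥5 scored as mitigating.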

SMILES	relative leaf area (% of untreated control) at 0.1 ppm
COC(=O)c1oc2ccc(C(F)(F)F)cc2c1NC(C)=O [Compound 63]	≥ 5%
CCOC(=O)c1oc2ccc(C(F)(F)F)cc2c1C(F)(F)F [Compound 71]	≥ 5%
O=C(NCc1ccccc1)c1oc2ccc(C(F)(F)F)cc2c1C(F)(F)F [Compound 77]	≥ 5%
COC(=O)c1oc2ccc(C(F)(F)F)cc2c1O [Compound 50]	≥ 5%
O=C(Nc1ccccc1)c1cc2cc(C(F)(F)F)ccc2o1 [Compound 53]	≥ 5%
Cc1c(C(=O)O)oc2ccccc12 [Compound 36]	≥ 5%
O=C(OCc1ccccc1)c1oc2ccc(C(F)(F)F)cc2c1C(F)(F)F [Compound 73]	≥ 5%
COC(=O)c1oc2ccc(C(F)(F)F)cc2c1C(F)(F)F [Compound 70]	≥ 5%
O=C(O)c1oc2ccc(C(F)(F)F)cc2c1C(F)(F)F [Compound 69]	≥ 5%
O=C(Nc1ccccc1)c1oc2ccc(C(F)(F)F)cc2c1C(F)(F)F [Compound 76]	≥ 5%
NC(=O)c1oc2ccc(C(F)(F)F)cc2c1C(F)(F)F [Compound 74]	≥ 5%
COC(=O)c1oc2ccccc2c1NC(=O)C(F)(F)F [Compound 39]	≥ 5%
O=C(O)c1nc2c(F)cc(F)cc2s1 [Compound 86]	≥ 5%
COC(=O)c1cc2cc(C(F)(F)F)ccc2o1 [Compound 3, methyl 5-(trifluoromethyl)benzofuran-2-carboxylate]	≥ 5%
O=C(O)c1cc2cc(Br)ccc2o1 [Compound 79]	≥ 5%
O=C(NCc1ccccc1)c1cc2cc(C(F)(F)F)ccc2o1 [Compound 54]	≥ 5%
COC(=O)c1cc2c(C(F)(F)F)cccc2o1 [Compound 45]	≥ 5%
O=C(OCc1ccccc1)c1cc2cc(C(F)(F)F)ccc2o1 [Compound 56]	≥ 5%
COC(=O)c1oc2ccc(C(F)(F)F)cc2c1N(C)C [Compound 62]	≥ 5%
COC(=O)c1oc2ccc(C(F)(F)F)cc2c1N(C(C)=O)C(C)=O [Compound 64]	≥ 5%
CNC(=O)c1cc2cc(C(F)(F)F)ccc2o1 [Compound 52]	≥ 5%
O=C(O)c1cc2c(C(F)(F)F)cccc2o1 [Compound 43]	≥ 5%
NC(=O)c1oc2ccccc2c1C(F)(F)F [Compound 85]	≥ 5%
COC(=O)c1oc2ccc(C(F)(F)F)cc2c1NC(=O)C(F)(F)F [Compound 65]	≥ 5%
CCOC(=O)c1oc2cccc(O)c2c1C [Compound 80]	≥ 5%
COC(=O)c1oc2ccc(C(F)(F)F)cc2c1NS(=O)(=O)c1ccccc1 [Compound 68]	≥ 5%
